Source: patent US6737383B1, “Herbicidal oxadiazolidines” (priority 1999, dated 2004)

What was measured:
rape = experiment: Test B pre/postemergence rape; assay type: in vivo, Brassica napus
Procedure, shortened: (§1)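 Test chemicals in a non-phytotoxic solvent mixture with surfactant were sprayed preemergence onto planted seeds and postemergence onto plants 2 to 18 cm tall (1- to 4-leaf stage). After twelve to sixteen days in a greenhouse, injury was visually rated against untreated controls from 0 (no effect) to 10 (complete control).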

velvetleaf = experiment: Test B pre/postemergence velvetleaf; assay type: in vivo, Abutilon theophrasti
Procedure, shortened: as §1

crabgrass = experiment: Test B pre/postemergence crabgrass; assay type: in vivo, Digitaria sanguinalis
Procedure, shortened: as §1

surinam grass = experiment: Test B pre/postemergence surinam grass; assay type: in vivo, Brachiaria decumbens
Procedure, shortened: as §1

corn = experiment: Test B pre/postemergence corn; assay type: in vivo, Zea mays
Procedure, shortened: as §1

bedstraw = experiment: Test B pre/postemergence bedstraw; assay type: in vivo, Galium aparine
Procedure, shortened: as §1

wild oat = experiment: Test B pre/postemergence wild oat; assay type: in vivo, Avena fatua
Procedure, shortened: as §1

blackgrass = experiment: Test B pre/postemergence blackgrass; assay type: in vivo, Alopecurus myosuroides
Procedure, shortened: as §1

wheat = experiment: Test B pre/postemergence wheat; assay type: in vivo, Triticum aestivum
Procedure, shortened: as §1

bamyardgrass = experiment: Test B flood test barnyardgrass; assay type: in vivo, Echinochloa crus-galli
Procedure, shortened: (§2)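 Flood test on plants grown to the 2-leaf stage; treated plants kept in greenhouse twelve to sixteen days, then visually rated against controls on a 0 (no effect) to 10 (complete control) scale.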

purple nutsedge = experiment: Test B pre/postemergence purple nutsedge; assay type: in vivo, Cyperus rotundus; details: Postemergence
Procedure, shortened: as §1

soybean = experiment: Test B pre/postemergence soybean; assay type: in vivo, Glycine max
Procedure, shortened: as §1

sugar beet = experiment: Test B pre/postemergence sugar beet; assay type: in vivo, Beta vulgaris
Procedure, shortened: as §1

cocklebur = experiment: Test B pre/postemergence cocklebur; assay type: in vivo, Xanthium strumarium
Procedure, shortened: as §1

smallflower flatsedge = experiment: Test B flood test smallflower flatsedge; assay type: in vivo, Cyperus difformis
Procedure, shortened: as §2

pigweed = experiment: Test B pre/postemergence pigweed; assay type: in vivo, Amaranthus retroflexus
Procedure, shortened: as §1

[1] = Preemergence, Rate 62 g/ha, scale of 0 to 10 where 0 is no effect and 10 is complete control
[2] = Preemergence, Rate 250 g/ha, scale of 0 to 10 where 0 is no effect and 10 is complete control
[3] = Preemergence, Rate 500 g/ha, scale of 0 to 10 where 0 is no effect and 10 is complete control
[4] = Rate 62 g/ha, Postemergence, scale of 0 to 10 where 0 is no effect and 10 is complete control
[5] = Rate 125 g/ha, Postemergence, scale 0 to 10
[6] = Rate 125 g/ha, Preemergence, scale of 0 to 10 where 0 is no effect and 10 is complete control
[7] = Rate 500 g/ha, Postemergence, scale 0 to 10, 0 no effect, 10 complete control
[8] = Rate 62 g/ha, headed Pre-emergence (flood test species), scale 0 to 10 (0 no effect, 10 complete control)
[9] = Rate 125 g/ha, Pre-emergence, flood test species, scale 0 to 10 where 0 is no effect and 10 is complete control
[10] = Rate 250 g/ha, Pre-emergence, flood-test species, scale 0 to 10, 0 is no effect, 10 is complete control
[11] = Rate 500 g/ha, Pre-emergence, flood test species, scale 0 to 10 (0 no effect, 10 complete control)

Cc1ccccc1-n1c(=O)on(C(=O)N(c2ccc(N(C)C)cc2)C(C)C)c1=O [Compound 237]
1: Soybean plant response rating (soybean; [5]) | Plant response rating (0 to 10; 0 is no effect, 10 is complete control), Soybean (soybean; Rate 250 g/ha, Postemergence) | Soybean plant response rating (soybean; [7])
3: Plant response rating, Crabgrass (crabgrass; [3]) | Bedstraw plant response rating (bedstraw; [7]) | Redroot pigweed plant response rating (pigweed; [7])
2: Velvetleaf plant response rating (velvetleaf; [7]) | Crabgrass plant response rating (crabgrass; [2]) | Plant response rating (0 to 10; 0 is no effect, 10 is complete control), Bedstraw (bedstraw; Rate 250 g/ha, Postemergence) | Plant response rating (0 to 10; 0 is no effect, 10 is complete control), Redroot pigweed (pigweed; Rate 250 g/ha, Postemergence)
0: Rape plant response rating (rape; [1]) | Rape plant response rating (rape; [2]) | Plant response rating, Rape (rape; [3]) | Rape plant response rating (rape; [4]) | Rape plant response rating (rape; [5]) | Rape plant response rating (rape; [6]) | Plant response rating (0 to 10; 0 is no effect, 10 is complete control), Rape (rape; Rate 250 g/ha, Postemergence) | Rape plant response rating (rape; [7]) | Velvetleaf plant response rating (velvetleaf; [1]) | Velvetleaf plant response rating (velvetleaf; [2]) | Plant response rating, Velvetleaf (velvetleaf; [3]) | Velvetleaf plant response rating (velvetleaf; [4]) | Velvetleaf plant response rating (velvetleaf; [5]) | Velvetleaf plant response rating (velvetleaf; [6]) | Plant response rating (0 to 10; 0 is no effect, 10 is complete control), Velvetleaf (velvetleaf; Rate 250 g/ha, Postemergence) | Crabgrass plant response rating (crabgrass; [1]) | Crabgrass plant response rating (crabgrass; [4]) | Crabgrass plant response rating (crabgrass; [5]) | Crabgrass plant response rating (crabgrass; [6]) | Plant response rating (0 to 10; 0 is no effect, 10 is complete control), Crabgrass (crabgrass; Rate 250 g/ha, Postemergence) | Crabgrass plant response rating (crabgrass; [7]) | B. signalgrass plant response rating (surinam grass; [1]) | B. signalgrass plant response rating (surinam grass; Preemergence, Rate 250 g/ha, scale 0 to 10, 0 is no effect, 10 is complete control) | Plant response rating, B. signalgrass (surinam grass; [3]) | B. signalgrass plant response rating (surinam grass; [4]) | B. signalgrass plant response rating (surinam grass; Rate 125 g/ha, Postemergence, scale 0 (no effect) to 10 (complete control)) | B. signalgrass plant response rating (surinam grass; [6]) | Plant response rating (0 to 10; 0 is no effect, 10 is complete control), B. signalgrass (surinam grass; Rate 250 g/ha, Postemergence) | B. signalgrass plant response rating (surinam grass; [7]) | Corn plant response rating (corn; [1]) | Corn plant response rating (corn; [2]) | Plant response rating, Corn (corn; [3]) | Corn plant response rating (corn; [4]) | Corn plant response rating (corn; [5]) | Corn plant response rating (corn; [6]) | Plant response rating (0 to 10; 0 is no effect, 10 is complete control), Corn (corn; Rate 250 g/ha, Postemergence) | Corn plant response rating (corn; [7]) | Bedstraw plant response rating (bedstraw; [1]) | Bedstraw plant response rating (bedstraw; [2]) | Plant response rating, Bedstraw (bedstraw; [3]) | Bedstraw plant response rating (bedstraw; [4]) | Bedstraw plant response rating (bedstraw; [5]) | Bedstraw plant response rating (bedstraw; [6]) | Wild oats plant response rating (wild oat; [1]) | Wild oats plant response rating (wild oat; [2]) | Plant response rating, Wild oats (wild oat; [3]) | Wild oats plant response rating (wild oat; [4]) | Wild oats plant response rating (wild oat; [5]) | Wild oats plant response rating (wild oat; [6]) | Plant response rating (0 to 10; 0 is no effect, 10 is complete control), Wild oats (wild oat; Rate 250 g/ha, Postemergence) | Wild oats plant response rating (wild oat; [7]) | Blackgrass plant response rating (blackgrass; [1]) | Blackgrass plant response rating (blackgrass; [2]) | Plant response rating, Blackgrass (blackgrass; [3]) | Blackgrass plant response rating (blackgrass; [4]) | Blackgrass plant response rating (blackgrass; [5]) | Blackgrass plant response rating (blackgrass; [6]) | Plant response rating (0 to 10; 0 is no effect, 10 is complete control), Blackgrass (blackgrass; Rate 250 g/ha, Postemergence) | Blackgrass plant response rating (blackgrass; [7]) | Wheat plant response rating (wheat; [1]) | Wheat plant response rating (wheat; [2]) | Plant response rating, Wheat (wheat; [3]) | Wheat plant response rating (wheat; [4]) | Wheat plant response rating (wheat; [5]) | Wheat plant response rating (wheat; [6]) | Plant response rating (0 to 10; 0 is no effect, 10 is complete control), Wheat (wheat; Rate 250 g/ha, Postemergence) | Wheat plant response rating (wheat; [7]) | Barnyardgrass plant response rating (bamyardgrass; [8]) | Barnyardgrass plant response rating (bamyardgrass; [9]) | Barnyardgrass plant response rating (bamyardgrass; [10]) | Barnyardgrass plant response rating (bamyardgrass; [11]) | Nutsedge plant response rating (purple nutsedge; Rate 62 g/ha, scale of 0 to 10 where 0 is no effect and 10 is complete control) | Nutsedge plant response rating (purple nutsedge; Rate 125 g/ha, scale 0 to 10) | Plant response rating (0 to 10; 0 is no effect, 10 is complete control), Nutsedge (purple nutsedge; Rate 250 g/ha) | Nutsedge plant response rating (purple nutsedge; Rate 500 g/ha, scale 0 to 10, 0 no effect, 10 complete control) | Soybean plant response rating (soybean; [1]) | Soybean plant response rating (soybean; [2]) | Plant response rating, Soybean (soybean; [3]) | Soybean plant response rating (soybean; [4]) | Soybean plant response rating (soybean; [6]) | Sugarbeets plant response rating (sugar beet; [1]) | Sugarbeets plant response rating (sugar beet; [2]) | Plant response rating, Sugarbeets (sugar beet; [3]) | Sugarbeets plant response rating (sugar beet; [4]) | Sugarbeets plant response rating (sugar beet; [5]) | Sugarbeets plant response rating (sugar beet; [6]) | Plant response rating (0 to 10; 0 is no effect, 10 is complete control), Sugarbeets (sugar beet; Rate 250 g/ha, Postemergence) | Sugarbeets plant response rating (sugar beet; [7]) | Cocklebur plant response rating (cocklebur; [1]) | Cocklebur plant response rating (cocklebur; [2]) | Plant response rating, Cocklebur (cocklebur; [3]) | Cocklebur plant response rating (cocklebur; [4]) | Cocklebur plant response rating (cocklebur; [5]) | Cocklebur plant response rating (cocklebur; [6]) | Plant response rating (0 to 10; 0 is no effect, 10 is complete control), Cocklebur (cocklebur; Rate 250 g/ha, Postemergence) | Cocklebur plant response rating (cocklebur; [7]) | S. Flatsedge plant response rating (smallflower flatsedge; [8]) | S. Flatsedge plant response rating (smallflower flatsedge; [9]) | S. Flatsedge plant response rating (smallflower flatsedge; [10]) | S. Flatsedge plant response rating (smallflower flatsedge; [11]) | Redroot pigweed plant response rating (pigweed; [1]) | Redroot pigweed plant response rating (pigweed; [2]) | Plant response rating, Redroot pigweed (pigweed; [3]) | Redroot pigweed plant response rating (pigweed; [4]) | Redroot pigweed plant response rating (pigweed; [5]) | Redroot pigweed plant response rating (pigweed; [6])
